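Values below derive from 48-hour exposures of cells grown in 96-well plates, with endpoints linearly interpolated between the two concentrations bracketing the appropriate inhibition level. Here, GI50 denotes the concentration required for 50% inhibition of growth.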 Active and inactive are the calls of the source. Cut-off read from the data, not from the text of the source: active = GI50 up to about 1.1 µM and inactive = higher. A value given as a limit tells only on which side of the number the result lay.

The results in this text go back to ChEMBL document CHEMBL1201862, “PubChem BioAssay data set” (2004).

Test systems include OVCAR-4; SF-268; SF-539; HCT-15; 786-0; K562; SK-OV-3; HOP-92; NCI/ADR-RES; A549; UACC-257; NCI-H522; HT-29; ACHN; DU-145; SR; PC-3; SF-295; MDA-MB-231; HCT-116.
Assay in all cases: DTP human tumour cell line panel, 48 h

A word on the GI50: it is the concentration at which growth is held to half of that of the control. `NC(=O)NOCC1NC(=O)NC1=O` (stereo not given): the GI50 in the assay on OVCAR-4 is > 100 µM (inactive); with SF-268, > 100 µM (inactive); in the assay on SF-539 it was > 100 µM (inactive); in the assay with HCT-15, greater than 100 µM; in the assay with 786-0 it was > 100 µM (inactive); with K562, > 100 µM (inactive). Further, the GI50 with SK-OV-3, with HOP-92, in the assay on NCI/ADR-RES, in the assay on A549, in the assay with UACC-257 and in the assay on NCI-H522 was > 100 µM (inactive) in each case. The GI50 in the assay with HT-29, with ACHN, with DU-145, in the assay with SR, in the assay on PC-3 and in the assay on SF-295 was > 100 µM (inactive) each time. Also, the GI50 with MDA-MB-231 and with HCT-116 was > 100 µM (inactive) each time.

With `C/C=C(/C)C(=O)O[C@@H]1CCN2CC[C@H](COC(=O)/C(=C/C)CO)C12` (stereo not given in full), the GI50 was > 100 µM (inactive) in the assay with OVCAR-4; > 100 µM (inactive) in the assay with SF-268; 84.1 µM (inactive) in the assay on SF-539; greater than 100 µM with HCT-15; > 95.3 µM (inactive) with 786-0; 11.2 µM (inactive) with K562. The GI50 is > 100 µM (inactive) with SK-OV-3; 58.2 µM (inactive) in the assay on HOP-92; > 100 µM (inactive) in the assay with NCI/ADR-RES; > 100 µM (inactive) in the assay on A549; > 53.8 µM (inactive) in the assay with UACC-257; 49.4 µM (inactive) with NCI-H522. For the same compound, the GI50 in the assay on HT-29 was 28.7 µM (inactive); in the assay on ACHN, > 100 µM (inactive); in the assay with DU-145 it was > 100 µM (inactive); with SR it was 39.5 µM (inactive); with PC-3, > 100 µM (inactive); with SF-295, > 89.1 µM (inactive). The figures for the GI50 in the assay on MDA-MB-231 and with HCT-116 were > 100 µM (inactive) and 48.8 µM (inactive), respectively.

Regarding `COC(=O)[C@@H]1C=C[C@H](OC2OC(COC(C)=O)C(OC(C)=O)C(OC(C)=O)C2OC(C)=O)n2c(=O)c3ccccc3c(=O)n21` (stereo not given in full), the GI50 in the assay with OVCAR-4 is 16.6 µM (inactive); in the assay on SF-268, > 10 µM (inactive); in the assay on SF-539 it was 15.7 µM (inactive); in the assay with HCT-15 it was 10.8 µM; in the assay with 786-0, 16.1 µM (inactive); with K562, 5.66 µM (inactive). Also, the GI50 with SK-OV-3 was 14.6 µM (inactive); in the assay with HOP-92, 10.1 µM (inactive); with NCI/ADR-RES, 19.8 µM (inactive); in the assay with A549, 21.4 µM (inactive); with UACC-257, 17.2 µM (inactive); in the assay with NCI-H522 it was 1.68 µM (inactive). Further, the GI50 with HT-29 was 7.21 µM (inactive); in the assay on ACHN it was 11.7 µM (inactive); in the assay with DU-145, 16.1 µM (inactive); with SR, 4.82 µM (inactive); in the assay on PC-3 it was 6.62 µM (inactive); in the assay with SF-295 it was 18.8 µM (inactive). Moreover, the GI50 was > 10 µM (inactive) with MDA-MB-231 and 10.9 µM (inactive) with HCT-116.

As for `CCCC(=O)NC(Nc1ccc(F)cc1)(C(F)(F)F)C(F)(F)F`, the GI50 in the assay on OVCAR-4 is 12.6 µM (inactive); in the assay with SF-268, > 100 µM (inactive); in the assay with SF-539, > 79.4 µM (inactive); in the assay on HCT-15, 5.79 µM; with 786-0 it was > 100 µM (inactive); in the assay with K562 it was 0.1 µM (active). For the same compound, the GI50 with SK-OV-3 is > 100 µM (inactive); with HOP-92, > 100 µM (inactive); in the assay on NCI/ADR-RES, 9.31 µM (inactive); in the assay on A549, 16.9 µM (inactive); in the assay with UACC-257, 8.2 µM (inactive); in the assay with NCI-H522, 27.4 µM (inactive). For the same compound, the GI50 was 64.3 µM (inactive) in the assay on HT-29; 2.14 µM (inactive) in the assay on ACHN; 33.2 µM (inactive) in the assay on DU-145; > 100 µM (inactive) in the assay on SR; 19.1 µM (inactive) in the assay on PC-3; 24.5 µM (inactive) with SF-295. Moreover, the GI50 is > 100 µM (inactive) in the assay with MDA-MB-231 and 19.8 µM (inactive) with HCT-116.

Consider `O=c1c2cc([N+](=O)[O-])ccc2n2n1Cc1ccccc1C2`, for which the GI50 in the assay on OVCAR-4 was > 100 µM (inactive); in the assay with SF-268 it was > 100 µM (inactive); in the assay on SF-539, > 100 µM (inactive); in the assay on HCT-15, greater than 100 µM; in the assay with 786-0, > 100 µM (inactive); with K562, > 100 µM (inactive). In addition, the GI50 in the assay with SK-OV-3 was > 100 µM (inactive); in the assay with HOP-92, > 100 µM (inactive); with NCI/ADR-RES, 73.6 µM (inactive); in the assay with A549, 79.3 µM (inactive); in the assay on UACC-257, > 100 µM (inactive); in the assay with NCI-H522, 64.6 µM (inactive). Further, the GI50 is > 100 µM (inactive) in the assay with HT-29; > 100 µM (inactive) in the assay on ACHN; > 100 µM (inactive) in the assay with DU-145; 87.3 µM (inactive) with SR; 32.4 µM (inactive) in the assay on PC-3; > 100 µM (inactive) with SF-295. Also, the GI50 in the assay with MDA-MB-231 and in the assay on HCT-116 was > 100 µM (inactive) in each case.

Turning to `Cc1cc(C)c(P2C(=C(O[Si](C(C)C)(C(C)C)C(C)C)C(C)(C)C)C2(c2ccccc2)c2ccccc2)c(C)c1` (stereo not given), the GI50 in the assay on OVCAR-4 is > 100 µM (inactive); in the assay on SF-268 it was > 100 µM (inactive); with SF-539, > 100 µM (inactive); in the assay with HCT-15, greater than 100 µM; in the assay on 786-0 it was > 100 µM (inactive); with K562, 67 µM (inactive). Further, the GI50 was > 100 µM (inactive) in the assay with SK-OV-3; > 100 µM (inactive) in the assay on HOP-92; > 100 µM (inactive) with NCI/ADR-RES; 61.8 µM (inactive) with A549; > 100 µM (inactive) in the assay with UACC-257; 62.1 µM (inactive) in the assay with NCI-H522. The GI50 in the assay on HT-29 was > 100 µM (inactive); in the assay on ACHN, > 100 µM (inactive); in the assay with DU-145 it was > 100 µM (inactive); in the assay on SR, 86.3 µM (inactive); in the assay on PC-3 it was 57.9 µM (inactive); with SF-295, > 100 µM (inactive). The GI50 in the assay on MDA-MB-231 is > 100 µM (inactive); in the assay on HCT-116, 52.8 µM (inactive).

As for `COc1ccc(CNc2nc(NCc3ccc(OC)cc3)nc(NC3CCCCC3)n2)cc1`, the GI50 is 10 µM (inactive) with OVCAR-4; 2.24 µM (inactive) with SF-268; 3.01 µM (inactive) in the assay with SF-539; 2.13 µM in the assay with HCT-15; 2.81 µM (inactive) in the assay with 786-0; 5.35 µM (inactive) in the assay with K562. The GI50 with SK-OV-3 was 3.87 µM (inactive); in the assay on HOP-92, 24 µM (inactive); in the assay with NCI/ADR-RES, 1.8 µM (inactive); in the assay on A549, 2 µM (inactive); in the assay on UACC-257, 53.8 µM (inactive); in the assay on NCI-H522, 1.21 µM (inactive). The GI50 in the assay on HT-29 was 3.46 µM (inactive); in the assay with ACHN it was 5.11 µM (inactive); with DU-145, 2.9 µM (inactive); in the assay on SR it was 3.29 µM (inactive); in the assay on PC-3 it was 3.21 µM (inactive); in the assay on SF-295, 1.34 µM (inactive). Moreover, the results for the GI50 in the assay on MDA-MB-231 and in the assay on HCT-116 were 2.48 µM (inactive) and 3.12 µM (inactive), respectively.

In the case of `C=C(C)C(=O)OC1C[C@H](COC(C)=O)C2CC=C(C)C2C2OC(=O)C(=C)[C@H]12` (stereo not given in full), the GI50 with OVCAR-4 is 1.74 µM (inactive); with SF-268, 2.4 µM (inactive); in the assay with SF-539 it was 4.59 µM (inactive); in the assay on HCT-15, 1.91 µM; in the assay on 786-0, 2.98 µM (inactive); in the assay with K562 it was 1.87 µM (inactive). Moreover, the GI50 with SK-OV-3 is 17.2 µM (inactive); in the assay on HOP-92 it was 1.92 µM (inactive); with NCI/ADR-RES it was 2.18 µM (inactive); with A549, 17 µM (inactive); with UACC-257, 4.09 µM (inactive); in the assay with NCI-H522 it was 1.45 µM (inactive). Further, the GI50 was 4.25 µM (inactive) in the assay with HT-29; 3.69 µM (inactive) in the assay on ACHN; 6.19 µM (inactive) with DU-145; 2.06 µM (inactive) in the assay with SR; 7.24 µM (inactive) in the assay with PC-3; 17.1 µM (inactive) in the assay with SF-295. Moreover, the results for the GI50 with MDA-MB-231 and in the assay with HCT-116 were 4.3 µM (inactive) and 1.67 µM (inactive), respectively.

Regarding `CC1=NN(c2ccccc2)C(=O)/C1=C\c1c(C)[nH]n(-c2ccccc2)c1=O`, the GI50 is > 100 µM (inactive) in the assay on OVCAR-4; > 100 µM (inactive) in the assay on SF-268; > 100 µM (inactive) in the assay with SF-539; greater than 100 µM in the assay on HCT-15; > 100 µM (inactive) in the assay on 786-0; 38.8 µM (inactive) with K562. Also, the GI50 in the assay on SK-OV-3 is > 100 µM (inactive); in the assay with HOP-92, 27.1 µM (inactive); with NCI/ADR-RES, > 100 µM (inactive); in the assay with A549, > 100 µM (inactive); with UACC-257 it was > 100 µM (inactive); with NCI-H522 it was 53.7 µM (inactive). The GI50 with HT-29 is 81.1 µM (inactive); in the assay on ACHN it was > 100 µM (inactive); with DU-145 it was > 100 µM (inactive); in the assay on SR, > 100 µM (inactive); in the assay on PC-3, 77.4 µM (inactive); in the assay with SF-295 it was > 100 µM (inactive). Further, the GI50 in the assay with MDA-MB-231 and in the assay on HCT-116 was > 100 µM (inactive) in each case.

As for `CO[C@H]1[C@@H](O)[C@@H](O)O[C@@H](O[C@H]2CC[C@@]3(C)[C@H](CC[C@@H]4[C@@H]3[C@H](O)C[C@]3(C)[C@@H](C5=CC(=O)OC5)CC[C@]43O)C2)[C@@H]1O`, the GI50 with OVCAR-4 was 0.192 µM (active); with SF-268 it was 0.11 µM (active); in the assay with SF-539 it was 0.08 µM (active); with HCT-15, 0.281 µM; in the assay on 786-0, 0.296 µM (active); in the assay on K562, 0.175 µM (active). For the same compound, the GI50 in the assay on SK-OV-3 was 0.248 µM (active); with HOP-92, 0.531 µM (active); in the assay on NCI/ADR-RES, 0.222 µM (active); in the assay with A549, 0.0491 µM (active); in the assay on UACC-257, 0.382 µM (active); in the assay with NCI-H522, 0.0239 µM (active). In addition, the GI50 in the assay with HT-29 was 0.435 µM (active); in the assay with ACHN it was 0.0471 µM (active); in the assay with DU-145 it was 0.0946 µM (active); with SR, 0.21 µM (active); with PC-3, 0.283 µM (active); in the assay on SF-295, 0.141 µM (active). Moreover, the GI50 is 0.649 µM (active) in the assay with MDA-MB-231 and 0.178 µM (active) in the assay with HCT-116.
